Measured values reported in US20070154393A1, “Bioassay for volatile low molecular weight insecticides and methods of use” (priority 2005, published 2007).
Read-outs that look alike come from different tables or passages of the source.

Experiments:
[1] = tested on: metabolically-resistant Hikone-R strain of Drosophila (elevated cytochrome P450); type: in vivo; details: Hikone-R, 24 hr
Protocol: (§1) Four Drosophila strains were used, all obtained from the Bloomington Drosophila Stock Center (Indiana University; Bloomington, Ind.). The Canton-S strain was used as the insecticide-susceptible standard. […] Two resistant neurological-mutant strains were also tested. […] Flies were reared in 100-ml vials capped with acetate plugs (Fisher Scientific; Suwanee, Ga.) on a commercial diet (JAZZ-MIX; Fisher Scientific). […] Mixed-sex adults, less than 1-wk old, were used in bioassays.
(§2) All volatile insecticide stocks were prepared at 100 μg/μl in analytical grade acetone. Rather than weigh the highly volatile liquid insecticides (i.e., all compounds except benzothiophene), weight was determined based on the density-volume relationship of each compound. […] The insecticide synergists PBO (piperonyl butoxide) and DEF (SSS-tributyl-phosphoro-trithioate) were obtained from Fluka Chemical Co. (Basel, Switzerland) and Mobay Chemical Co. (Kansas City, Mo.). […] Synergist stocks were prepared at 100 μg/ml in analytical grade acetone.
(§3) Briefly, bioassays took place in 0.5-l glass jars with metal lids. Mixed-sex flies were isolated from lab colonies and placed in 4-ml dram vials in groups of ten, along with a dried piece of laboratory diet. The dram vials were capped with open-top septum caps that were covered with fine mesh (held in place by non-toxic glue). For bioassays, the assembled dram vials were placed into the 0.5-l jars along with a folded filter paper “tent” (Whatman #1; Vineland, N.J.). The filter paper was treated with either an insecticide dilution or acetone, the jar was sealed with the metal lid, and the bioassay proceeded for 24-hr at room temperature. Mortality was scored based on a complete lack of movement by the flies. Four concentrations plus an acetone control were tested for all insecticides. Between five and ten replicates were performed for each concentration range on each strain-insecticide combination. Synergist bioassays were performed with a slight modification. Synergist stocks were applied to dram vials at 100 μl per vial to provide assay concentrations of 10 μg per vial. […] After treatment, vials were held at an angle in a fume hood and rotated ¼-turn each minute until the acetone evaporated. Flies and diet were added as above and held for 1-hr. Assays were initiated, run, and scored as above.
(§4) Probit analysis was performed using PROC PROBIT in the SAS software package (SAS Institute; Cary, N.C.). If control mortality ever exceeded 10% in a given replicate, that replicate was discarded.

[2] = tested on: para-ts1 (para-R) strain of Drosophila (sodium channel point mutation); type: in vivo; details: for Slope ± Std. Error (probit mortality line): Table 2, para-R, 24 hr
Protocol: as §1, §2, §3, §4

Substance: ethyl formate
- Slope ± Std. Error (probit mortality line) ([1]; Table 2): 12.50 ± 7.10
- Slope ± Std. Error (probit mortality line) ([1]; Table 3, no synergist): 12.50 ± 7.10
- Slope ± Std. Error (probit mortality line) [2]: 7.11 ± 1.34
- response of para-ts1 relative to Canton-S (LC50 ratio, FIG. 7B), in words ([2]; significance at p<0.05, method of Robertson and Preisler): non-significant tolerance

Substance: methyl formate
- Slope ± Std. Error (probit mortality line) ([1]; Table 2): 2.72 ± 0.68
- Slope ± Std. Error (probit mortality line) ([1]; Table 3, no synergist): 2.72 ± 0.68
- Slope ± Std. Error (probit mortality line) [2]: 8.84 ± 1.46
